Data published in PubChem BioAssay (NCI).
Values joined by “and” are separate entries in the source; they are usually repeats but may differ in a detail not shown here. Equal values may be shown once.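 Five compound concentrations were applied to cells in 96-well plates for 48 hours; endpoints were derived by simple linear interpolation of the resulting dose-response curve. GI50 marks 50% less growth. TGI: concentration producing complete growth inhibition.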

Experiments:
Experiment in all cases: NCI tumour cell line growth inhibition, 48 h
HS 578T breast = tested on: HS 578T breast
COLO 205 colon = tested on: COLO 205 colon
MDA-MB-231 breast = tested on: MDA-MB-231 breast
LOX IMVI melanoma = tested on: LOX IMVI melanoma
TK-10 renal = tested on: TK-10 renal
SR leukemia = tested on: SR leukemia
K-562 leukemia = tested on: K-562 leukemia
HOP-92 NSCLC = tested on: HOP-92 NSCLC
OVCAR-5 ovarian = tested on: OVCAR-5 ovarian
MCF7 breast = tested on: MCF7 breast

SMILES | GI50 (HS 578T breast) | TGI (HS 578T breast) | GI50 (COLO 205 colon) | TGI (COLO 205 colon) | GI50 (MDA-MB-231 breast) | TGI (MDA-MB-231 breast) | GI50 (LOX IMVI melanoma) | TGI (LOX IMVI melanoma) | GI50 (TK-10 renal) | TGI (TK-10 renal) | GI50 (SR leukemia) | TGI (SR leukemia) | GI50 (K-562 leukemia) | TGI (K-562 leukemia) | GI50 (HOP-92 NSCLC) | TGI (HOP-92 NSCLC) | GI50 (OVCAR-5 ovarian) | TGI (OVCAR-5 ovarian) | GI50 (MCF7 breast) | TGI (MCF7 breast)
CC(=O)O[C@H]1C[C@@H]2[C@@]3(C)CC[C@H]4C[C@@]4(C)[C@@H]3CC[C@@]2(C)C2=CCC3=C(COC3=O)[C@]21C | 10.2 µM | 27.3 µM | 34 µM | > 100 µM | 15.8 µM | 35.9 µM | 17.6 µM | 36.5 µM | 20.4 µM | 48.5 µM | > 100 µM | > 100 µM | 40.4 µM | > 100 µM | 16.7 µM | 35 µM | 19.3 µM | 39.5 µM | 24 µM | 89.8 µM
COc1cc(/C=C/C(=O)c2nc3cc(F)ccc3nc2C)cc(OC)c1OC | 5.34 µM | > 100 µM | 7.56 µM | > 100 µM | 8.49 µM | > 100 µM | 2.84 µM | > 22.1 µM | > 100 µM | > 100 µM | 1.85 µM | > 100 µM | 2.01 µM | > 23.9 µM | 2.81 µM | > 100 µM | > 100 µM | > 100 µM | 2.3 µM | > 100 µM
COc1cc(NC(=O)COc2ccccc2)c(C(N)=O)cc1OC | 0.771 µM | 26.9 µM | 0.453 µM | 5.13 µM | 2.39 µM | 42.4 µM | 1.81 µM | > 100 µM | 14.4 µM | > 100 µM | 0.515 µM | > 100 µM | 0.31 µM | > 100 µM | 17.7 µM | 52.5 µM | 15 µM | > 100 µM | 0.661 µM | > 100 µM
CCOC(=O)C#Cc1c(C(=O)OCC)nnn1[C@@H]1O[C@H](COC)[C@@H](OC)[C@H]1OC | 23.7 µM | 72.7 µM | 1.94 µM | 3.83 µM | 10.7 µM | 25.1 µM | 1.16 µM | 2.58 µM | 1.86 µM | 3.45 µM | 1.64 µM | 4.66 µM | 1.85 µM | 7.97 µM | 2.8 µM | 7.61 µM | 16.2 µM | 32.7 µM | 2.85 µM | 12.7 µM
Cn1cc(-c2ccc3c(c2)ncn3-c2cc(NS(=O)(=O)C3CC3)cc(-c3ccc(F)cc3F)c2)cn1 | 1.68 µM | 12.6 µM | 24.8 µM | > 100 µM | 5.61 µM | > 100 µM | 5.75 µM | 42 µM | 2.73 µM | 72.7 µM | 6 µM | > 100 µM | 4.31 µM | 72.1 µM | 2.83 µM | 62.4 µM | 14 µM | > 100 µM | 4.37 µM | 92.6 µM
Cc1ccc(-c2nc([P+](c3ccccc3)(c3ccccc3)c3ccccc3)c(N3CCOCC3)o2)cc1 | 0.578 µM | 9.64 µM | 0.343 µM | 1.68 µM | 0.399 µM | 4.93 µM | 0.565 µM | 2.44 µM | 1.44 µM | 9.15 µM | 0.418 µM | 5.33 µM | 0.331 µM | 4.87 µM | 0.3 µM | 2.44 µM | 0.846 µM | 11.9 µM | 0.316 µM | 2.18 µM
CCCCCCCCCCCCOC1C(C(COC2OC(C(O)CO)C3OC(C)(C)OC23)OC(=O)Nc2ccccc2)OC2OC(C)(C)OC21 (configuration not stated) | 6.13 µM | 18.6 µM | 5.51 µM | 16.6 µM | 8.7 µM | 21.1 µM | 7.82 µM | 20.9 µM | 4.72 µM | 9.91 µM | < 0.0212 µM |  | 3.44 µM | 16.9 µM | 7.29 µM | 20.1 µM | 4.84 µM | 16.3 µM | 3.85 µM | 13.6 µM
N=C(N)SCc1ccc(Cl)c2ccccc12 (tested in a mixture with another compound) |  | 48.1 µM and 53 µM |  | 23.9 µM and 19.9 µM |  | 21.9 µM and 27.8 µM |  | 33.1 µM and 36.6 µM |  | 20.9 µM and 19.7 µM |  | 22.8 µM and 8.03 µM |  | 19.4 µM and 10.1 µM |  | 32.2 µM and 24.9 µM |  | 26.8 µM and 27.6 µM |  | 24.7 µM and 27.9 µM
O=C1[C@H](Cc2ccc(O)cc2)N2C(=O)CCN(C(=O)NCc3ccccc3)[C@H]2CN1Cc1cccc2ccccc12 | 0.851 µM | 7.24 µM | 0.748 µM | 2.76 µM | 0.605 µM | 3.6 µM | 1.43 µM | 14.4 µM | 3.88 µM | 30.7 µM | 3.19 µM | > 54.1 µM | 2.06 µM | > 100 µM | 0.418 µM | 2.4 µM | 1.72 µM | 29.1 µM | 6.02 µM | 39 µM
Nc1cc(C(F)(F)F)c(-c2nc(N3CCOCC3)nc(N3CCOCC3)n2)cn1 | 0.231 µM | 1.46 µM | 0.265 µM | 10 µM | 0.703 µM | 40.6 µM |  | > 35.1 µM | 0.11 µM | 1.17 µM | 1.04 µM | 28.4 µM | 3.65 µM | > 100 µM | 0.139 µM | 0.765 µM | 0.192 µM | > 100 µM | 0.113 µM | 19 µM
CC1=C(C(=O)Nc2ccc3[nH]ncc3c2)C(c2ccc(F)cc2)N=C(c2ccc(C(F)(F)F)nc2)N1 (configuration not stated) | 5.05 µM | 20.2 µM | > 25 µM | > 25 µM | 10.1 µM | > 25 µM | 8.88 µM | > 25 µM | > 24.1 µM | > 25 µM | 6.43 µM | > 25 µM | 10 µM | > 25 µM | 0.548 µM | 7.6 µM | > 25 µM | > 25 µM | 7.71 µM | > 25 µM
COc1cc(/C=C/c2cc(/C=C/c3ccc(O)c(OC)c3)n(C(=O)Nc3ccc(C)cc3)n2)ccc1O | 0.278 µM | 0.689 µM | 1.91 µM | 3.51 µM | 1.46 µM | 23 µM | 0.501 µM | 2.62 µM | 0.874 µM | 5.81 µM | 0.0268 µM | 0.15 µM | 0.359 µM |  | 0.682 µM | 4.18 µM | 1.89 µM | 5.89 µM | 0.4 µM | 2.97 µM
CN1CCN(C(=O)/C=C/c2ccc([N+](=O)[O-])o2)CC1 | 46.5 µM | > 100 µM | 3.76 µM | 15 µM | 14.3 µM | 34.7 µM | 4.46 µM | 17 µM | 31.7 µM | > 100 µM | 4.23 µM | 75.1 µM | 11 µM | 40.4 µM | 11.4 µM | 26.1 µM | 22.3 µM | 39.1 µM | 10.9 µM | 38.1 µM
O=C(CC1(O)C(=O)Nc2c(Cl)cc(Cl)cc21)c1cccc([N+](=O)[O-])c1 (configuration not stated) |  | 94.9 µM |  | > 61.7 µM |  | 64.7 µM |  | 35.5 µM |  | > 100 µM |  | > 100 µM |  | 70.2 µM |  | 80.9 µM |  | > 100 µM |  | 33.3 µM
